From patent US20200069691A1, “HETEROCYCLIC COMPOUNDS AS HIV PROTEASE INHIBITORS” (Merck Sharp & Dohme Corp., priority 2016, published 2020)

Molecular target: T1, wild-type HIV-1 protease (Human immunodeficiency virus type 1 group M subtype B, UniProt P04585)
T1 construct: Escherichia coli expressed wild-type HIV-1 protease protein
Test: Assay for Inhibition of Microbial Expressed HIV Protease (peptide substrate cleavage, LC-MS/MS readout)
Type: biochemical
Conditions: E. coli expressed wild-type HIV-1 protease, mean of at least two independent experiments, read-out: HIV Pr Enzyme HIV1 PR IC50
Procedure, shortened: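 E. coli-expressed wild-type HIV-1 protease ([…]) was preincubated with inhibitor 30 min at room temperature in pH 5.5 acetate buffer (100 mM NaCl, 0.1% BSA). Then 400 μM octapeptide substrate was added and reacted 1 h at 30 °C; inhibition came from LC-MS/MS product peak areas, mean of ≥2 experiments.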

Row | Structure (SMILES) | IC50
1 | CC(C)C[C@]1(c2ccccc2)NC(=N)N(Cc2cnc(C(F)(F)F)c(C(=O)N3Cc4nccnc4C3)c2)C1=O [Compound 390, (5R)-3-{[5-(5,7-dihydro-6H-pyrrolo[3,4-b]pyrazin-6-ylcarbonyl)-6-(trifluoromethyl)pyridin-3-yl]methyl}-2-imino-5-(2-methylpropyl)-5-phenylimidazolidin-4-one] | 8.45 nM
2 | N=C1NC(c2ccc(F)cc2)(c2ccc(F)cc2)C(=O)N1Cc1cncc(C(=O)N2CCN(C(=O)OCCOCc3ccccc3)CC2)c1 [Compound 391, 2-(benzyloxy)ethyl 4-[(5-{[4,4-bis(4-fluorophenyl)-2-imino-5-oxoimidazolidin-1-yl]methyl}pyridin-3-yl)carbonyl]piperazine-1-carboxylate] | 13.6 nM
3 | N=C1NC(c2ccc(F)cc2)(c2ccc(F)cc2)C(=O)N1Cc1cncc(C(=O)N2CCC(n3c(=O)[nH]c4ccccc43)CC2)c1 [Compound 392, 1-{1-[(5-{[4,4-bis(4-fluorophenyl)-2-imino-5-oxoimidazolidin-1-yl]methyl}pyridin-3-yl)carbonyl]piperidin-4-yl}-1,3-dihydro-2H-benzimidazol-2-one] | 61.7 nM
4 | N#Cc1ncc2c(n1)CN(C(=O)c1cncc(CN3C(=N)NC(c4ccc(F)cc4)(c4ccc(F)cc4)C3=O)c1)C2 [Compound 393, 6-[(5-{[4,4-bis(4-fluorophenyl)-2-imino-5-oxoimidazolidin-1-yl]methyl}pyridin-3-yl)carbonyl]-6,7-dihydro-5H-pyrrolo[3,4-d]pyrimidine-2-carbonitrile] | 67.1 nM
5 | N=C1NC(c2ccc(F)cc2)(c2ccc(F)cc2)C(=O)N1Cc1cncc(C(=O)N2Cc3ccccc3C2)c1 [Compound 394, 3-{[5-(1,3-dihydro-2H-isoindol-2-ylcarbonyl)pyridin-3-yl]methyl}-5,5-bis(4-fluorophenyl)-2-iminoimidazolidin-4-one] | 93.1 nM
6 | N=C1NC(c2ccc(F)cc2)(c2ccc(F)cc2)C(=O)N1Cc1cncc(C(=O)N2CCN(C(=O)OCc3ccccc3)CC2)c1 [Compound 395, benzyl 4-[(5-{[4,4-bis(4-fluorophenyl)-2-imino-5-oxoimidazolidin-1-yl]methyl}pyridin-3-yl)carbonyllpiperazine-1-carboxylate] | 97.4 nM
7 | N=C1NC(c2ccccc2)(c2ccccc2)C(=O)N1Cc1cc(C(=O)N2Cc3ccccc3C2)ccn1 [Compound 396, 3-{[4-(1,3-dihydro-2H-isoindol-2-ylcarbonyl)pyridin-2-yl]methyl}-2-imino-5,5-diphenylimidazolidin-4-one] | 16.7 nM
8 | N#Cc1ncc2c(n1)CN(C(=O)c1ccnc(CN3C(=N)NC(c4ccccc4)(c4ccccc4)C3=O)c1)C2 [Compound 397, 6-({2-[(2-imino-5-oxo-4,4-diphenylimidazolidin-1-yl)methyl]pyridin-4-yl}carbonyl)-6,7-dihydro-5H-pyrrolo[3,4-d]pyrimidine-2-carbonitrile] | 18.1 nM
9 | N=C1NC(c2ccc(F)cc2)(c2ccc(F)cc2)C(=O)N1Cc1cc(C(=O)N2Cc3ccccc3C2)ccn1 [Compound 398, 3-{[4-(1,3-dihydro-2H-isoindol-2-ylcarbonyl)pyridin-2-yl]methyl}-5,5-bis(4-fluorophenyl)-2-iminoimidazolidin-4-one] | 19.2 nM
10 | N=C1NC(c2ccccc2)(c2ccccc2)C(=O)N1Cc1cc(C(=O)N2Cc3nccnc3C2)ccn1 [Compound 399, 3-{[4-(5,7-dihydro-6H-pyrrolo[3,4-b]pyrazin-6-ylcarbonyl)pyridin-2-yl]methyl}-2-imino-5,5-diphenylimidazolidin-4-one] | 20.4 nM
11 | CC(C)CCC1(c2ccccc2)NC(=N)N(Cc2cc(C(=O)N3Cc4nccnc4C3)ccn2)C1=O (stereo not shown) [Compound 400, 3-{[4-(5,7-dihydro-6H-pyrrolo[3,4-b]pyrazin-6-ylcarbonyl)pyridin-2-yl]methyl}-2-imino-5-(3-methylbutyl)-5-phenylimidazolidin-4-one] | 25.6 nM
12 | N=C1NC(c2ccccc2)(c2ccccc2)C(=O)N1Cc1cc(C(=O)N2Cc3cncnc3C2)ccn1 [Compound 401, 3-{[4-(5,7-dihydro-6H-pyrrolo[3,4-d]pyrimidin-6-ylcarbonyl)pyridin-2-yl]methyl}-2-imino-5,5-diphenylimidazolidin-4-one] | 31.4 nM
13 | N=C1NC(c2ccc(F)cc2)(c2ccc(F)cc2)C(=O)N1Cc1cc(C(=O)N2Cc3nccnc3C2)ccn1 [Compound 402, 3-{[4-(5,7-dihydro-6H-pyrrolo[3,4-b]pyrazin-6-ylcarbonvl)pyridin-2-yl]methyl}-5,5-bis(4-fluorophenyl)-2-iminoimidazolidin-4-one] | 34.2 nM
14 | CC(C)CC1(c2ccccc2)NC(=N)N(Cc2cc(C(=O)N3Cc4nccnc4C3)ccn2)C1=O (stereo not shown) [Compound 403, 3-{[4-(5,7-dihydro-6H-pyrrolo[3,4-b]pyrazin-6-ylcarbonyl)pyridin-2-yl]methyl}-2-imino-5-(2-methylpropyl)-5-phenylimidazolidin-4-one] | 54.3 nM
15 | COC(=O)N1CCN(C(=O)c2ccnc(CN3C(=N)NC(c4ccc(F)cc4)(c4ccc(F)cc4)C3=O)c2)CC1 [Compound 404, methyl 4-[(2-{[4,4-bis(4-fluorophenyl)-2-imino-5-oxoimidazolidin-1-yl]methyl}pyridin-4-yl)carbonyl]piperazine-1-carboxylate] | 58.6 nM
16 | COC(=O)N1CCN(C(=O)c2ccnc(CN3C(=N)NC(CCC(C)C)(c4ccccc4)C3=O)c2)CC1 (stereo not shown) [Compound 405, methyl 4-[(2-{[2-imino4-(3-methylbutyl)-5-oxo-4-phenylimidazolidin-1-yl]methyl}pyridin-4-yl)carbonyl]piperazine-1-carboxylate] | 81.1 nM
17 | Cc1cc(CN2C(=N)NC(c3ccc(F)cc3)(c3ccc(F)cc3)C2=O)cc(C(=O)N2Cc3nccnc3C2)n1 [Compound 406, 3-{[2-(5,7-dihydro-6H-pyrrolo[3,4-b]pyrazin-6-ylcarbonyl)-6-methylpyridin-4-yl]methyl}-5,5-bis(4-fluorophenyl)-2-iminoimidazolidin-4-one] | 10.6 nM
18 | N=C1NC(c2ccccc2)(c2ccccc2)C(=O)N1Cc1cc(C(=O)N2Cc3nccnc3C2)cs1 [Compound 407, 3-{[4-(5,7-dihydro-6H-pyrrolo[3,4-b]pyrazin-6-ylcarbonyl)thiophen-2-yl]methyl}-2-imino-5,5-diphenylimidazolidin-4-one] | 73.8 nM
19 | N=C1NC(c2ccccc2)(c2ccccc2)C(=O)N1Cc1cc(C(=O)N2Cc3cncnc3C2)cs1 [Compound 408, 3-{[4-(5,7-dihydro-6H-pyrrolo[3,4-d]pyrimidin-6-ylcarbonyl)thiophen-2-yl]methyl}-2-imino-5,5-diphenylimidazolidin-4-one] | 80.5 nM
